Results from patent US20130204017A1, “GLYCERYL ASCORBIC ACID ACYLATED DERIVATIVE OR ITS SALT, PRODUCTION METHOD THEREOF, AND COSMETICS” (SEIWA KASEI COMPANY, LIMITED, priority 2012, published 2013).

What was measured:
[1] = In vivo moisturizing test (stratum corneum water content, forearm); settings: 5 g in 100 mL water, pH 7, 0.3 mL on forearm, 10 subjects
Protocol: (§1) An in vitro moisturizing test and an in vivo moisturizing test of the glyceryl ascorbic acid acylated derivatives of Examples 1 to 6 were carried out according to the following manner. For comparison, sodium ascorbate, magnesium ascorbyl phosphate, glucosyl ascorbic acid, 3-O-glyceryl ascorbic acid, 2-O-glyceryl ascorbic acid and 3-O-cetyl ascorbic acid were used.
Each test sample (5 g) was dissolved in 100 mL of water, and pH thereof was adjusted to 7 with a dilute sodium hydroxide aqueous solution or a dilute hydrochloric acid aqueous solution to prepare a sample solution. A paper filter of 1 cm×1 cm was placed on a forearm portion and 0.3 mL of the prepared sample solution was applied on this, and covered and fixed by a polyamide film. Then, 3 hours and 8 hours after, the stratum corneum water content at the sample-applied portion was measured using CORNEOMETER CM825 (manufactured by Integral Corporation). The test was carried out with 10 subjects, and evaluated according to the following criterion (evaluation standard).
3: Stratum corneum water content increased by 15% or more, based on the water content before sample application
2: Stratum corneum water content increased by 0 to less than 15%, based on the water content before sample application
1: There was no change or there was a reduction in stratum corneum water content, before and after sample application.
Based on the evaluation results, classification was set as described below.
◯: Total points of 10 subjects is 25 or more
Δ: Total points of 10 subjects is 16 to 24
x: Total points of 10 subjects is 15 or less

B16 melanoma 4A5 cell = experiment: Melanin production suppressing evaluation test (theophylline-induced melanine production); type: cell-based, mouse; settings: sample at a concentration of 100 μl or less; 0.2 mM theophylline; culturing 3 days
Protocol: As a test for a whitening effect, evaluation of the action of B16 melanoma 4A5 cell on theophylline-induced melanine production was carried out on a glyceryl ascorbic acid acylated derivative of the present invention, according to the following procedure. The same evaluations were carried out also on arbutin, ascorbic acid, sodium ascorbate, magnesium ascorbyl phosphate, glucosyl ascorbic acid, and 3-O-glyceryl ascorbic acid and 2-O-glyceryl ascorbic acid obtained in the Synthesis Examples mentioned above, as comparison.
(1) B16 mouse melanoma 4A5 strain was sowed onto a 48-well plate at a cell density of 2.0×10^4 cells/well. (2) Culturing was performed for 24 hours with Dulbecco's Modified Eagle's medium (manufactured by SIGMA. Hereinafter, abbreviated as D-MEM) containing 10% fetal bovine serum (manufactured by Roshe Diagnostics). Then, it was changed to 0.2 mM theophylline and a 10% fetal bovine serum-containing D-MEM which contains a sample of given concentration. (3) After culturing for 3 days in the co-existence of a sample, the medium was removed using an aspirator. Then, after distilled water was added, cells were broken by an ultrasonic wave. (4) Thereafter, the amount of protein was determined using BCA protein assay kit (manufactured by PIERCE), and the produced amount of melanine was measured by an alkali solubilizing method described later. To the cell-destructed solution was added sodium hydroxide so as to give a final concentration of 2 mol/L and the mixture was dissolved by heating (60° C., 15 minutes), then, the absorbance at 450 nm was measured using a micro plate reader. The melanine amount was calculated from a calibration curve made using synthetic melanine (SIGMA) as a standard. The melanine amount per unit protein was calculated by dividing the melanine amount by the protein amount. (5) The melanine production suppressing rate was calculated according to the following formula.
Melanine production suppressing rate(%)=[1−(A−B)/(C−B)]×100
[wherein, A represents the melanine amount per unit protein (g/g) in adding a sample, B represents the melanine amount per unit protein (g/g) in the normal group, and C represents the melanine amount per unit protein (g/g) in the control group.]
The normal group means the case where neither theophylline nor sample was added.(that is; theophylline(−) and sample(−))
The control group means the case where neither sample was not added but theophylline was added.(that is; theophylline (+) and sample(−))
In the following Tables, the melanine production suppressing rate in applying a sample at a concentration of […] or less is expressed as described below.

[2] = tested on: Normal human dermal fibroblasts; experiment: Collagen production evaluation test (Sircol collagen assay); type: cell-based; settings: sample 100 μM, cultured 48 hours; for activity at 100 µM: Homo sapiens, Fibroblast, read-out: Collagen production promoting effect (collagen production amount, control group is 100%)
Protocol: The collagen production promoting effects of the glyceryl ascorbic acid acylated derivatives of the present invention were evaluated, according to the following procedure. As comparison, arbutin, ascorbic acid, sodium ascorbate, magnesium ascorbyl phosphate, glucosyl ascorbic acid, 3-O-glyceryl ascorbic acid and 2-O-glyceryl ascorbic acid were used like in Test Example 1.
Normal human dermal fibroblasts were regulated with a 10% (v/v) fetal bovine serum (manufactured by Invitrogen)-containing D-MEM so as to give a cell density of 2.5×10^4 cells/well, then, pre-incubation for 24 hours was performed on a 96-well plate. After the medium was removed, a sample regulated with a 5% (v/v) fetal bovine serum-containing D-MEM to a concentration of 100 μM was added to each well, then, cultured for 48 hours at 37° C. and 5% CO2. After completion of culturing, the amount of free collagen was measured using Sircol collagen assay kit (manufactured by Biocolor).
The collagen production amount in applying a sample at a concentration of 100 μM is obtained as % value when the control group is 100%, and the results are shown in Table 4 based on the following standard.

[3] = In vitro moisturizing test (amount of retained water); type: physicochemical; settings: 25° C., 65% RH to equilibrium, then 25° C., 20% RH for 24 hours
Protocol: as §1
A sample shown later was dried, and the dried sample was spread in an amount of about 0.4 g (this weight is represented by W0) on the bottom of a weighing bottle (diameter: 3.6 cm, height excluding lid: 1.8 cm) so as to give uniform thickness. The sample contained in the weighing bottle was allowed to stand still in a constant humidity and constant temperature vessel (ENVIROS KCL-1000, EYELA) under environments of 25° C. and 65% RH. The weight was measured periodically, waiting until sufficient moisture absorption to attain equilibrium of weight increase (about 48 hours). Thereafter, the sample was transferred to under environments of 25° C. and 20% RH (in sealed vessel containing a saturated CH3COOK aqueous solution filled in the bottom part). From the weight after 24 hours (this weight is represented by W1), the amount of retained water per 1 g of the dried sample was calculated according to the following formula.
From the water amount thus calculated, the moisturizing effect was judged based on the following judging criterion, and the results are shown in Table 8.
Δ: 15 mg or more and less than 35 mg

[4] = Stability test: odor and color change of 2% aqueous solution stored at 50° C.; type: physicochemical; settings: pH7, ten panelists
Protocol: Using 2-O-glyceryl-6-O-octanoyl ascorbic acid obtained in Example 2 and 2-O-glyceryl-6-O-octadecanoyl ascorbic acid obtained in Example 9, an evaluation was made on the stability of odor and color change when stored at 50° C. for 4 weeks, according to the following procedure. For comparison, magnesium ascorbyl phosphate, ascorbic acid and 3-O-glyceryl ascorbic acid were used.
Aqueous solutions (2%) of various test samples were adjusted to pH7 with a dilute sodium hydroxide aqueous solution or a dilute hydrochloric acid aqueous solution, and charged into 50 mL screw tubes. The tubes were sealed and stored at 50° C. for 4 weeks. The odor and degree of color change immediately after preparation, after storage for two weeks and after storage for four weeks were evaluated by ten panelists based on the following methods and according to the following criterion.
3: almost no change as compared with that immediately after preparation
2: color change is observed as compared with that immediately after preparation
1: intense color change is observed as compared with that immediately after preparation
Based on the evaluation results, classification was conducted as shown below.
◯: total point of 10 panelists is 25 or more
Δ: total point of 10 panelists is 16 to 24
x: total point of 10 panelists is 15 or less

[5] = storage period 0 (immediately after preparation)

SMILES	in vivo moisturizing (stratum corneum water content) after 3 hours [1]	in vivo moisturizing (stratum corneum water content) after 8 hours [1]	Whitening effect (melanine production suppressing rate) (B16 melanoma 4A5 cell)	activity at 100 µM [2]	in vitro moisturizing effect (amount of retained water per 1 g of the dried sample) [3]	Color change ([4]; storage 2 weeks at 50° C.)	Odor ([4]; storage 2 weeks at 50° C.)	Color change ([4]; storage 4 weeks at 50° C.)	Odor ([4]; storage 4 weeks at 50° C.)	Color change [4, 5]	Odor [4, 5]	Collagen production promoting effect (collagen production amount, control group is 100%) [2]
O=C1O[C@H]([C@@H](O)CO)C(O)=C1OCC(O)CO (some centres unmarked) [2-O-glyceryl ascorbic acid, reference compound]	Δ (Total points of 10 subjects is 16 to 24)	Δ (Total points of 10 subjects is 16 to 24)	Δ (Less than 30%)	100 to 200%	◯ (35 mg or more)	–	–	–	–	–	–	–
CCCC(=O)OC[C@H](O)[C@H]1OC(=O)C(OCC(O)CO)=C1O (some centres unmarked) [Example 1, 2-O-glyceryl-6-O-butanoyl ascorbic acid]	◯ (Total points of 10 subjects is 25 or more)	◯ (Total points of 10 subjects is 25 or more)	◯ (30 to 49%)	100 to 200%	–	–	–	–	–	–	–	–
CCCCCCCC(=O)OC[C@H](O)[C@H]1OC(=O)C(OCC(O)CO)=C1O (some centres unmarked) [Example 2, 2-O-glyceryl-6-O-octanoyl ascorbic acid]	◯ (Total points of 10 subjects is 25 or more)	◯ (Total points of 10 subjects is 25 or more)	⊚ (50% or more)	100 to 200%	–	◯ (total point of 10 panelists is 25 or more)	◯ (total point of 10 panelists is 25 or more)	◯ (total point of 10 panelists is 25 or more)	◯ (total point of 10 panelists is 25 or more)	◯ (total point of 10 panelists is 25 or more)	◯ (total point of 10 panelists is 25 or more)	–
CCCCCCCCCCCCCCCC(=O)OC[C@H](O)[C@H]1OC(=O)C(OCC(O)CO)=C1O (some centres unmarked) [Example 3, 2-O-glyceryl-6-O-hexadecanoyl ascorbic acid]	◯ (Total points of 10 subjects is 25 or more)	◯ (Total points of 10 subjects is 25 or more)	⊚ (50% or more)	100 to 200%	–	–	–	–	–	–	–	–
CCCCCCCC(=O)OCC(O)COC1=C(O)[C@@H]([C@@H](O)COC(=O)CCCCCCC)OC1=O (some centres unmarked) [Example 4, 2-O-(3′-O-octanoylglyceryl)-6-O-octanoyl ascorbic acid]	◯ (Total points of 10 subjects is 25 or more)	◯ (Total points of 10 subjects is 25 or more)	⊚ (50% or more)	100 to 200%	–	–	–	–	–	–	–	–
CCCCCCCCCCCC(=O)OC[C@H](O)[C@H]1OC(=O)C(OCC(O)CO)=C1O (some centres unmarked) [Example 5, 2-O-glyceryl-6-O-dodecanoyl ascorbic acid]	◯ (Total points of 10 subjects is 25 or more)	◯ (Total points of 10 subjects is 25 or more)	⊚ (50% or more)	100 to 200%	–	–	–	–	–	–	–	–
CCCCC(CC)C(=O)OC[C@H](O)[C@H]1OC(=O)C(OCC(O)CO)=C1O (some centres unmarked) [Example 6, 2-O-glyceryl-6-O-(2-ethylhexanoyl) ascorbic acid]	◯ (Total points of 10 subjects is 25 or more)	◯ (Total points of 10 subjects is 25 or more)	⊚ (50% or more)	100 to 200%	–	–	–	–	–	–	–	–
O=C1O[C@H]([C@@H](O)CO)C(O)=C1O[C@H]1O[C@H](CO)[C@@H](O)[C@H](O)[C@H]1O [Glucosyl ascorbic acid, reference compound]	–	–	Δ (Less than 30%)	–	Δ (15 mg or more and less than 35 mg)	–	–	–	–	–	–	+ (100 to 200%)
